Results from patent US12037344B2, “NLRP3 modulators” (INNATE TUMOR IMMUNITY, INC., priority 2018, dated 2024).
Read-outs that look alike come from different tables or passages of the source.

Tests used:
TLR8 = molecular target: T1, TLR8 (Homo sapiens, UniProt Q9NR97); assay: In vitro human TLR8 binding reporter assay (HEK-Blue, NF-kB/AP1-inducible SEAP); assay type: cell-based; conditions: read-out: TLR8 Agonist EC50
T1 construct: human HEK-Blue cells co-expressing a TLR7 or TLR8 gene
T1 sequence (Q9NR97 27-1041): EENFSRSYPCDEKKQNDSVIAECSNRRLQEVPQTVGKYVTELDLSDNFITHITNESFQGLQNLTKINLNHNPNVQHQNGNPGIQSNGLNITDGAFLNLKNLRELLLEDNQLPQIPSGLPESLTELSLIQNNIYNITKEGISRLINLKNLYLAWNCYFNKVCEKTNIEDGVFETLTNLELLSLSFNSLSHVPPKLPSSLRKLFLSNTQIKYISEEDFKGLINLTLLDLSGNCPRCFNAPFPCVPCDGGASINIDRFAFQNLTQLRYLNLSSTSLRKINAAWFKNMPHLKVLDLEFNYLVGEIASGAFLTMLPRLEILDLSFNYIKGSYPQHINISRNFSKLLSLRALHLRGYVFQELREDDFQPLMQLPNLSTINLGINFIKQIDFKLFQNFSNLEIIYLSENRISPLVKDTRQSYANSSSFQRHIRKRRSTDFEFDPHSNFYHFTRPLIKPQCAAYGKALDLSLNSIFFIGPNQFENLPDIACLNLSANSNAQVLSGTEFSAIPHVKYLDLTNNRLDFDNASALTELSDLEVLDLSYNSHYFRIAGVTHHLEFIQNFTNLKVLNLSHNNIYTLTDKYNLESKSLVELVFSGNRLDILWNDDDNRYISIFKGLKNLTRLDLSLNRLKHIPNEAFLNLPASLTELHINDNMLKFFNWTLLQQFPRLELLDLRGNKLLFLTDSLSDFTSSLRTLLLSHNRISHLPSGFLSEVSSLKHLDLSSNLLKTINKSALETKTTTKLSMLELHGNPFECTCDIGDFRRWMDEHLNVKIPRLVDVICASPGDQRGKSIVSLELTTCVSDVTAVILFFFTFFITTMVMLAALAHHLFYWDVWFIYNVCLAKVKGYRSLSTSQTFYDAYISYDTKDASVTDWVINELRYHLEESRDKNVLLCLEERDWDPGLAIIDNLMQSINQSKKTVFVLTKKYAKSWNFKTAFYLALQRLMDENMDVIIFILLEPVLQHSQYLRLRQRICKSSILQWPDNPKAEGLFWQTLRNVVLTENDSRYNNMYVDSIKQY
Procedure, shortened: (§1)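 Cells are seeded and grown for 24 h. Compounds or DMSO are then added and incubated 18 h at 37 °C. Quanti-Blue is added, and SEAP is read after thirty minutes. EC50 values are normalized, with RLU from 50 μM reference standard setting 100% Ymax.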

THP-1 cells = assay: Measurement of IL-1β production, hTRF protocol (second alternative procedure), THP-1 cells; assay type: cell-based, human
Procedure, shortened: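 Compounds, dilution series starting at a final 10 μM, were incubated 2 hours at 37° C with PMA-differentiated THP-1 cells (50 ng/ml overnight; 50,000 cells/well, 2% FBS RPMI). Released IL-1β quantified in supernatant by hTRF kit with 1:40 antibody dilution, 4° C overnight, 665/615 nm ratio.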

TLR7 = molecular target: T2, TLR7 (Homo sapiens, UniProt Q9NYK1); assay: In vitro human TLR7 binding reporter assay (HEK-Blue, NF-kB/AP1-inducible SEAP); assay type: cell-based; conditions: read-out: TLR7 Agonist EC50
T2 construct: human HEK-Blue cells co-expressing a TLR7 or TLR8 gene
T2 sequence (Q9NYK1 27-1049): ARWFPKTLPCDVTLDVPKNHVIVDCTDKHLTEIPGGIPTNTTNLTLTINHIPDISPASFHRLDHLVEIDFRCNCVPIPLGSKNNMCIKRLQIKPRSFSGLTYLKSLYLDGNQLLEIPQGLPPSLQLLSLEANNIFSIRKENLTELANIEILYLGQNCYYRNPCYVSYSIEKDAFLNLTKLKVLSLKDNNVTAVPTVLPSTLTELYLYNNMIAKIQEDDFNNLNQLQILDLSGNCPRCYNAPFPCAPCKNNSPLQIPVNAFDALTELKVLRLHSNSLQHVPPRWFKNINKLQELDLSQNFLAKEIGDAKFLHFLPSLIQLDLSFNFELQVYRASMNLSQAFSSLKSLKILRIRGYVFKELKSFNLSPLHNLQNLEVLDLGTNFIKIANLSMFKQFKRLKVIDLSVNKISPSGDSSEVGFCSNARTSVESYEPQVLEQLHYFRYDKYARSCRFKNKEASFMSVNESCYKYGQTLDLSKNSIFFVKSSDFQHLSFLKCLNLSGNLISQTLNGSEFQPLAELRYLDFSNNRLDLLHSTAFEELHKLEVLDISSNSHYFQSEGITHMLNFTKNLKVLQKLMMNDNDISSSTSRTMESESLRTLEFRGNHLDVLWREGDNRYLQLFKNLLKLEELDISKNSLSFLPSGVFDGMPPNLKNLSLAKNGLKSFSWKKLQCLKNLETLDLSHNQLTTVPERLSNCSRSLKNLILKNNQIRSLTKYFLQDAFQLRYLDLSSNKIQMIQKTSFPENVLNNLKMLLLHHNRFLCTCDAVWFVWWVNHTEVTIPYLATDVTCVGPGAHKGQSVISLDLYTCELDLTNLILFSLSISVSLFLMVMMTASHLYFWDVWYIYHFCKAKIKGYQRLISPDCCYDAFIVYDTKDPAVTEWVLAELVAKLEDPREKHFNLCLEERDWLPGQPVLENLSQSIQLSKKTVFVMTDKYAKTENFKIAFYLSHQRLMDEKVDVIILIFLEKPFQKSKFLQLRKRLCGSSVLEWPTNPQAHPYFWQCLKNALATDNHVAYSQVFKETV
Procedure, shortened: as §1

[1] = Homo sapiens, THP-1, IL-1β production, human cells, read-out: NLRP3 hILIB EC50
[2] = Homo sapiens, THP-1, read-out: NLRP3 hILIB EC50
[3] = Homo sapiens, THP-1, IL-1β production, human, read-out: NLRP3 hILIB EC50

Row | Compound | EC50 (TLR8; activity range) [µM] | EC50 (THP-1 cells; [1]) [µM] | EC50 (TLR7; activity range) [µM] | EC50 (TLR8; activity range class) [µM] | EC50 (THP-1 cells; [2]) [µM] | EC50 (TLR7; activity range class) [µM] | EC50 (THP-1 cells; [3]) [µM] | EC50 (THP-1 cells; IL-1β production, human, read-out: NLRP3 hILIB EC50) [µM]
1 | CNC(=O)C1(Cn2cc3c(N)nc4cc(-c5ccn[nH]5)ccc4c3n2)CC1 [Example 608] | > 100 | 0.7 | > 100 | – | – | – | – | –
2 | CN(CCn1cc2c(n1)c(N)nc1cc(-c3cc[nH]n3)ccc12)Cc1ccccc1 [Example 121, 2-{2-[benzyl(methyl)amino]ethyl}-7-(1H-pyrazol-3-yl)-2H-pyrazolo[3,4-c]quinolin-4-amine] | – | – | – | > 100 | 0.85 | > 100 | – | –
3 | COc1cccc(C(=O)NCCn2cc3c(n2)c(N)nc2cc(-c4cc[nH]n4)ccc23)c1 [Example 79] | – | – | – | > 100 | – | > 100 | 1.59 | –
4 | CCCn1cc2c(N)nc3cc(-c4cc[nH]n4)ccc3c2n1 [Example 220] | – | – | – | > 100 | – | > 100 | 0.12 | –
5 | Nc1nc2cc(-c3cc[nH]n3)ccc2c2nn(C3CCCC3O)cc12 (single isomer, unassigned) [Example 314] | – | – | – | > 100 | – | > 100 | 0.49 | –
6 | Nc1nc2cc(-c3cc[nH]n3)ccc2c2nn(CC(O)CF)cc12 (single isomer, unassigned) [Example 377] | – | – | – | > 100 | – | > 100 | – | 0.45
7 | CC(C)NC(=O)C(C)(C)Cn1cc2c(N)nc3cc(-c4ccn[nH]4)ccc3c2n1 [Example 603] | > 100 | 3.05 | > 100 | – | – | – | – | –
8 | Nc1nc2cc(-c3cc[nH]n3)ccc2c2nn(CCNC(=O)c3cc(Cl)ccn3)cc12 [Example 197] | – | – | – | > 100 | – | > 100 | 0.25 | –
9 | Nc1nc2cc(-c3cc[nH]n3)ccc2c2cn(CCNC(=O)Oc3ccccc3)nc12 [Example 117, phenyl N-{2-[4-amino-7-(1H-pyrazol-3-yl)-2H-pyrazolo[3,4-c]quinolin-2-yl]ethyl}carbamate] | – | – | – | 20 to 100 | 0.57 | > 100 | – | –
10 | CC(=O)N1CCCC1Cn1cc2c(N)nc3cc(-c4ccn[nH]4)ccc3c2n1 (stereo not drawn) [Example 258] | – | – | – | > 100 | – | > 100 | 1.78 | –
11 | Nc1nc2cc(-c3cc[nH]n3)ccc2c2nn(CC(O)C(F)(F)F)cc12 (stereo not drawn) [Example 245] | – | – | – | > 100 | – | > 100 | 0.94 | –
12 | COC1CCN(CCn2cc3c(N)nc4cc(-c5ccn[nH]5)ccc4c3n2)C1 (stereo not drawn) [Example 266] | – | – | – | > 100 | – | > 100 | 2.62 | –
13 | Nc1nc2cc(-c3cc[nH]n3)ccc2c2nn(CCC(=O)NC3CCC3)cc12 [Example 504] | > 100 | 2.34 | > 100 | – | – | – | – | –
14 | CCNC(=O)CCn1cc2c(N)nc3cc(-c4cc[nH]n4)ccc3c2n1 [Example 517] | > 100 | 1.72 | > 100 | – | – | – | – | –
15 | CCS(=O)(=O)NCCc1cc2c(N)nc3cc(-c4cc[nH]n4)ccc3c2[nH]1 [Example 482] | > 100 | 2.21 | > 100 | – | – | – | – | –
16 | Nc1nc2cc(-c3cc[nH]n3)ccc2c2cn(CCNC(=O)C3CCOCC3)nc12 [Example 47] | – | – | – | > 100 | – | > 100 | 23.3 | –
17 | Nc1nc2cc(-c3cc[nH]n3)ccc2c2nn(C[C@@H]3C[C@H](O)CN3)cc12 [Example 382] | – | – | – | > 100 | – | > 100 | 5.39 | –

Row | Compound | EC50 (TLR8; activity range) [µM] | EC50 (THP-1 cells; [1]) [µM] | EC50 (TLR7; activity range) [µM] | EC50 (TLR8; activity range class) [µM] | EC50 (THP-1 cells; [2]) [µM] | EC50 (TLR7; activity range class) [µM] | EC50 (THP-1 cells; [3]) [µM] | EC50 (THP-1 cells; IL-1β production, human, read-out: NLRP3 hILIB EC50) [µM]
18 | Nc1nc2cc(-c3cc[nH]n3)ccc2c2cn(CC(=O)Nc3ccccc3F)nc12 [Example 164] | – | – | – | > 100 | – | > 100 | 0.25 | –
19 | Nc1nc2cc(-c3cc[nH]n3)ccc2c2cn(CCNC(=O)c3cnc4ccccn4c3=O)nc12 [Example 98] | – | – | – | > 100 | – | > 100 | 1.59 | –
20 | Nc1nc2cc(-c3cc[nH]n3)ccc2c2nn(CCCN3CCOCC3)cc12 [Example 213] | – | – | – | > 100 | – | > 100 | 3.21 | –
21 | N#CC1(C(=O)NCCn2cc3c(N)nc4cc(-c5cc[nH]n5)ccc4c3n2)CC1 [Example 291] | – | – | – | > 100 | – | > 100 | 4.65 | –
22 | N#CCCCCn1cc2c(N)nc3cc(-c4cc[nH]n4)ccc3c2n1 [Example 460] | > 100 | 0.2 | > 100 | – | – | – | – | –
23 | CC(C(=O)NCc1ccccc1)n1cc2c(N)nc3cc(-c4ccn[nH]4)ccc3c2n1 (stereo not drawn) [Example 571] | > 100 | 2.02 | > 100 | – | – | – | – | –
24 | COCCCn1cc2c(N)nc3cc(-c4cc[nH]n4)ccc3c2n1 [Example 303] | – | – | – | > 100 | – | > 100 | 0.21 | –
25 | Nc1nc2cc(-c3cc[nH]n3)ccc2c2nn(CCC(=O)NCc3ccccn3)cc12 [Example 507] | > 100 | 17.5 | > 100 | – | – | – | – | –
26 | CC(C)NC(=O)C(C)n1cc2c(N)nc3cc(-c4ccn[nH]4)ccc3c2n1 (stereo not drawn) [Example 569] | > 100 | 0.94 | > 100 | – | – | – | – | –
27 | Nc1nc2cc(-c3cc[nH]n3)ccc2c2cn(CC(=O)NCC3CCOCC3)nc12 [Example 550] | > 100 | 5.01 | > 100 | – | – | – | – | –
28 | CN(C)Cc1cc2c(N)nc3cc(-c4ccn[nH]4)ccc3c2[nH]1 [Example 439] | > 100 | 0.32 | > 100 | – | – | – | – | –
29 | CC(C)OCC(O)Cn1cc2c(N)nc3cc(-c4cc[nH]n4)ccc3c2n1 (stereo not drawn) [Example 371] | – | – | – | > 100 | – | > 100 | 1.94 | –
30 | Nc1nc2cc(-c3cc[nH]n3)ccc2c2cn(Cc3nnc(-c4ccccc4)o3)nc12 [Example 172] | – | – | – | > 100 | – | > 100 | 0.21 | –
31 | Nc1nc2cc(-c3cc[nH]n3)ccc2c2cn(CCNCc3cccnc3)nc12 [Example 110] | – | – | – | 1 to 20 | – | 20 to 100 | 13.1 | –
32 | Nc1nc2cc(-c3cc[nH]n3)ccc2c2nn(CCN3CCCC3)cc12 [Example 304] | – | – | – | > 100 | – | > 100 | 0.66 | –
33 | Nc1nc2cc(-c3cc[nH]n3)ccc2c2nn(CCC(=O)N3CC(F)(F)C3)cc12 [Example 503] | > 100 | 2.58 | > 100 | – | – | – | – | –
34 | COC(C)(C)Cn1cc2c(N)nc3cc(-c4cc[nH]n4)ccc3c2n1 [Example 322] | – | – | – | > 100 | – | > 100 | 0.83 | –
